Assay results: ChEMBL document CHEMBL1201862, “PubChem BioAssay data set” (2004)
Activity calls are given as the source filed them.

Key:
Cytochrome P450 2C9 = Cytochrome P450 2C9 (Homo sapiens, UniProt P11712)
Cytochrome P450 1A2 = molecular target: T1, Cytochrome P450 1A2 (Homo sapiens, UniProt P05177);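 note: PubChem cytochrome P450 panel assay, CYP1A2 panel member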
T1 sequence (P05177 whole entry): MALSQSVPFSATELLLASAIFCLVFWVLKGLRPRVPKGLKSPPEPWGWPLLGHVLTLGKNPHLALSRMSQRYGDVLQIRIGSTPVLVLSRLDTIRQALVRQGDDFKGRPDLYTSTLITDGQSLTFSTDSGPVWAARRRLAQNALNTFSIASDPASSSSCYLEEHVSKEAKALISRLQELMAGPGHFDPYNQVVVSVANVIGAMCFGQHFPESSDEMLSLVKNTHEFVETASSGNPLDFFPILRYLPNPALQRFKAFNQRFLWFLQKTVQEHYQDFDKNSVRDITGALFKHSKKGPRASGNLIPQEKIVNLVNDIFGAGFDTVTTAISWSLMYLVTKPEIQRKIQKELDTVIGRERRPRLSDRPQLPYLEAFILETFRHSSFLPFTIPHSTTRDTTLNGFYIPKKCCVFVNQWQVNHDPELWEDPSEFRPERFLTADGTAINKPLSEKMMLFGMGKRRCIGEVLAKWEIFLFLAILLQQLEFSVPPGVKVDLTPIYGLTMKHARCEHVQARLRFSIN

[1] = molecular target: Voltage-dependent T-type calcium channel subunit alpha-1H (Homo sapiens, UniProt O95180); assay type: functional;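 note: channel activity triggered by adding a high calcium stimulation buffer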
Voltage-dependent T-type calcium channel subunit alpha-1H, sequence (O95180 whole entry): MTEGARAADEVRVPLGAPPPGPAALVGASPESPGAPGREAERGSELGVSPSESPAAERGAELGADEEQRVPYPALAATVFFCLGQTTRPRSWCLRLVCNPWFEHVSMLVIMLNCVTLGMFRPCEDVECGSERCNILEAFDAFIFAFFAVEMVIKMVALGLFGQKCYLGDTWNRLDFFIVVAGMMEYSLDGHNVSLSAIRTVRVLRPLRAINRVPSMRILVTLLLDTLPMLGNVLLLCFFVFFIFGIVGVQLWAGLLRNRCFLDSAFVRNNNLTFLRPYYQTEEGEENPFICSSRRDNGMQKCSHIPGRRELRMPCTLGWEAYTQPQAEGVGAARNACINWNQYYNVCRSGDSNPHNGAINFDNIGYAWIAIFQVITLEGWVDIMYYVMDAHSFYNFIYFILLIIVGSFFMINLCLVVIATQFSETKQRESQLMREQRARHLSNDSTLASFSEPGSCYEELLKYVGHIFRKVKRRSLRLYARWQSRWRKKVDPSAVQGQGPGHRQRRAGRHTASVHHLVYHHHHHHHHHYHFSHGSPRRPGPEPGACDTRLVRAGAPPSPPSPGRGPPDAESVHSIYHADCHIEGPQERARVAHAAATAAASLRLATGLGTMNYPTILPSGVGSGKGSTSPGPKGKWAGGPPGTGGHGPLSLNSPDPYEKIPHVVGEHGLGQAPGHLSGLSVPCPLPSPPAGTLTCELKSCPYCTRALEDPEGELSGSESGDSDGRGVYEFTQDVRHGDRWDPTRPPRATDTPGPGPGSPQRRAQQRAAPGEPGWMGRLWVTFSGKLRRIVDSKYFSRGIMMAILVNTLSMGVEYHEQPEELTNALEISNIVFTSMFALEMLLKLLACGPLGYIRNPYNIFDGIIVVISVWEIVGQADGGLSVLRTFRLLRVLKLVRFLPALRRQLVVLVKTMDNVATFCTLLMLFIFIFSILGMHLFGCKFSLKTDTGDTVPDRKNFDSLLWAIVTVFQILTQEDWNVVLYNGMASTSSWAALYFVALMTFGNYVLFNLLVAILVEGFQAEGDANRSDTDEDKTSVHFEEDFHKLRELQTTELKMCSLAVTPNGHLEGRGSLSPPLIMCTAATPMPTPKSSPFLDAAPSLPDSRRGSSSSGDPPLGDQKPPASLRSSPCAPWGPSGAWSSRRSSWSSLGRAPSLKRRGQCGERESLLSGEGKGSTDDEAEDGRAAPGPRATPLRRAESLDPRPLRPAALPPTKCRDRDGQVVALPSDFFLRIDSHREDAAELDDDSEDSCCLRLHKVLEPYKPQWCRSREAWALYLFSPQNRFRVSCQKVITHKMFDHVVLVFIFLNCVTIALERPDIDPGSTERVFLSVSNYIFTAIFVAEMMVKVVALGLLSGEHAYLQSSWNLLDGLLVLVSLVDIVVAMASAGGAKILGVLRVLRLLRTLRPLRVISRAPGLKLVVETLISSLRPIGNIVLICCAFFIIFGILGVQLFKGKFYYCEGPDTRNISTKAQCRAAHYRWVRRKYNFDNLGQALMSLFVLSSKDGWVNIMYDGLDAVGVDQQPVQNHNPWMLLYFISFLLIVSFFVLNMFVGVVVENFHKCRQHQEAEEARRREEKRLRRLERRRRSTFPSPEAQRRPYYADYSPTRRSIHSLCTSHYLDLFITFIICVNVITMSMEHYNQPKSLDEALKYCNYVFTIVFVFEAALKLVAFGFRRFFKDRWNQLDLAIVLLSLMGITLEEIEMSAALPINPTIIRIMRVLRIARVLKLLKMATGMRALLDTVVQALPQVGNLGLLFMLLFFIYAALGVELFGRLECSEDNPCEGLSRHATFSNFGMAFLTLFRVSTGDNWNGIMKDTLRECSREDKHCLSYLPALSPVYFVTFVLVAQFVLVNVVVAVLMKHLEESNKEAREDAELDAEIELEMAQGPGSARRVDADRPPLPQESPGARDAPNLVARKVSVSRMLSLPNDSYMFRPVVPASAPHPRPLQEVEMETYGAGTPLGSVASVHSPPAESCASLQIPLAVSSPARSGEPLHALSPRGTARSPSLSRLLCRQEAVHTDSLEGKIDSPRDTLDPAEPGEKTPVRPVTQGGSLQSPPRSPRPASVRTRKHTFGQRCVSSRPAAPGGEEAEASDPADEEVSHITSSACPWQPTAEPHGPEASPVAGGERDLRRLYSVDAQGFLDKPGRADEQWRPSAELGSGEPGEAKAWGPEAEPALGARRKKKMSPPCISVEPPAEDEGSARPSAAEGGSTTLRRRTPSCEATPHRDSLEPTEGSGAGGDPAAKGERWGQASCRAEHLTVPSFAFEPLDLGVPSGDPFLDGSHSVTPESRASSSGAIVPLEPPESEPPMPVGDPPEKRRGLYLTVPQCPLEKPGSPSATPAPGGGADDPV

HeLa = experiment: HeLa cell cytotoxicity, dose response, cytotoxicity control for MITF activator project, CellTiter-Glo luminescence, cherry-pick samples (AID 540259); assay type: functional, cell-based; conditions: Homo sapiens
[2] = molecular target: T2, High affinity choline transporter 1 (Homo sapiens, UniProt Q9GZV3); experiment: CHT inhibitors, dose response, cell-based, 5-point CRC, membrane potential dye (AID 504840); assay type: functional
T2 sequence (Q9GZV3 whole entry): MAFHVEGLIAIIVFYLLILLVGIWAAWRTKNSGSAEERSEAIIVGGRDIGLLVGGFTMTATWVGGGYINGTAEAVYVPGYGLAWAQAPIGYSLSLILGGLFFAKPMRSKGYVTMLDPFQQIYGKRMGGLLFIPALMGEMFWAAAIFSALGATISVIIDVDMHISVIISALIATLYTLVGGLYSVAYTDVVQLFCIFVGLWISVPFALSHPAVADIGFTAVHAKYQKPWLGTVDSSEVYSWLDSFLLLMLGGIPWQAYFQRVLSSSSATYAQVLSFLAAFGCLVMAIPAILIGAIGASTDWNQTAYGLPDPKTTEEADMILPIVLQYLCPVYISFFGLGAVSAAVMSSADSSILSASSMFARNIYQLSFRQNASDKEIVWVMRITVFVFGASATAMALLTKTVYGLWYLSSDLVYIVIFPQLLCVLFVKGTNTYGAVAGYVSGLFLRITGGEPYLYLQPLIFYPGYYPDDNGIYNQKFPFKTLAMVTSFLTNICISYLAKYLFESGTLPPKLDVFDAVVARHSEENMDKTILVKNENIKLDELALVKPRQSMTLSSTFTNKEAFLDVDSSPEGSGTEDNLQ

Cytochrome P450 2C19 = Cytochrome P450 2C19 (Homo sapiens, UniProt P33261); experiment: Cytochrome panel assay with activity outcomes. Panel member name: p450-cyp2c19 Compounds with AC50 equal or less than 10 uM are considered active; assay type: functional; conditions: read-out: AC50
Cytochrome P450 2C19, sequence (P33261 whole entry): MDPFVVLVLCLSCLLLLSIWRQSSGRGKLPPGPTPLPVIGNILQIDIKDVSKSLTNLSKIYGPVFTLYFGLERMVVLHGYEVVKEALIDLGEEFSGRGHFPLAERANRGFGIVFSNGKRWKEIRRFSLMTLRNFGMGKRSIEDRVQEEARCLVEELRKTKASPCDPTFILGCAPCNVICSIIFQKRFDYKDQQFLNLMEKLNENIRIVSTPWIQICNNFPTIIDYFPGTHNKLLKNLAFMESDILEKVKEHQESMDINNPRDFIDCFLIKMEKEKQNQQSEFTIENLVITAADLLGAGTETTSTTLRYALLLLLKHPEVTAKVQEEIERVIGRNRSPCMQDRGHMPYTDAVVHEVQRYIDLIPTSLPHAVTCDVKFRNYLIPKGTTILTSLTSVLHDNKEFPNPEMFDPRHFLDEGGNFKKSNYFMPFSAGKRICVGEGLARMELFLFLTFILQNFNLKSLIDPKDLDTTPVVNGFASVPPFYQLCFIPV

Cytochrome P450 3A4 = Cytochrome P450 3A4 (Homo sapiens, UniProt P08684);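 note: CYP3A4 tested as one member of a cytochrome P450 panel screen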
Cytochrome P450 3A4, sequence (P08684 whole entry): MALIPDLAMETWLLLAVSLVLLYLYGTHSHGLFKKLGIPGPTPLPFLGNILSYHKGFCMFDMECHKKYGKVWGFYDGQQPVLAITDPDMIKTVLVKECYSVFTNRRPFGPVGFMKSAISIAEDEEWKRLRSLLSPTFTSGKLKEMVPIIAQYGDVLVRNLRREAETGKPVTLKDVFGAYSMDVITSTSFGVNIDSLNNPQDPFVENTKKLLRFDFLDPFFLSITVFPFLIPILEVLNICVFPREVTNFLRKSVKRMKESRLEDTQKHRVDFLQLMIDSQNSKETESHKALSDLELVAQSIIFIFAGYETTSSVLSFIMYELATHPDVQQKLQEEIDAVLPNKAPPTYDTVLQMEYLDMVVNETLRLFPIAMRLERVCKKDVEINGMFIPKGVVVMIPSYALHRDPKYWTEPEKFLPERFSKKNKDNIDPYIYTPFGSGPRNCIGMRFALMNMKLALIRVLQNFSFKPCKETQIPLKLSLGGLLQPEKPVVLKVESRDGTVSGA

[3] = molecular target: ATP-dependent molecular chaperone HSP82 (Candida albicans (strain WO-1) (Yeast), UniProt C4YTQ8); experiment: loss of DOC-induced GRE-beta-galactosidase reporter signal, dose response, Hsp90 inhibitor project, S. cerevisiae, luminescence (AID 2400); assay type: functional, cell-based;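 note: beta-galactosidase luminescence from glucocorticoid response element reporter as proxy for Hsp90 function; inhibitor potency where signal loss means Hsp90 inhibition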
ATP-dependent molecular chaperone HSP82, sequence (C4YTQ8 whole entry): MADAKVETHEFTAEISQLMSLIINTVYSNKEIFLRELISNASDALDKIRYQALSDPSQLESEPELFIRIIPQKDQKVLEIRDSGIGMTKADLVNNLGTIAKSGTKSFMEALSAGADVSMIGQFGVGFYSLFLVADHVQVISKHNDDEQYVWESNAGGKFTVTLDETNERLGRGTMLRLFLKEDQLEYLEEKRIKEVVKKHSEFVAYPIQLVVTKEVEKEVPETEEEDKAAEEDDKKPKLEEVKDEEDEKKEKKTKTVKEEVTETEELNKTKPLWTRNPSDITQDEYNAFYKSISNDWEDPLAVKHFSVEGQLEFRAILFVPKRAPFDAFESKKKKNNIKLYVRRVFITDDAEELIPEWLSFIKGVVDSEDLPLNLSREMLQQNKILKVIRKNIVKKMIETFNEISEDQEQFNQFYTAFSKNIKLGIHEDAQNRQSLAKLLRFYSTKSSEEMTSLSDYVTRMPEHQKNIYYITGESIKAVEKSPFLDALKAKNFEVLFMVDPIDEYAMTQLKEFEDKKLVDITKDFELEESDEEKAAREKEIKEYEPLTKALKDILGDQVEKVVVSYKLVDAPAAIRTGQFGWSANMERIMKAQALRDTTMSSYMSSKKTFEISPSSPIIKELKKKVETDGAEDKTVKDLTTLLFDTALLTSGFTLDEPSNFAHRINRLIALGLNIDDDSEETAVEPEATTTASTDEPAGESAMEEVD

[4] = molecular target: T3, Serine/threonine-protein phosphatase (Candida dubliniensis (strain CD36 / CBS 7987 / NCPF 3949 / NRRLY-17841) (Yeast), UniProt B9W6M3); experiment: calcineurin pathway inhibitors in yeast reporter, dose response, S. cerevisiae, CDRE-lacZ, luminescence, secondary (AID 2388); assay type: functional, cell-based;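 note: yeast reporter cells carrying a calcineurin-responsive lacZ construct stimulated with calcium chloride; luminescent beta-galactosidase reporter signal in whole cells rather than isolated phosphatase activity; potency for inhibition where a drop in reporter signal means calcineurin blockade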
T3 sequence (B9W6M3 whole entry): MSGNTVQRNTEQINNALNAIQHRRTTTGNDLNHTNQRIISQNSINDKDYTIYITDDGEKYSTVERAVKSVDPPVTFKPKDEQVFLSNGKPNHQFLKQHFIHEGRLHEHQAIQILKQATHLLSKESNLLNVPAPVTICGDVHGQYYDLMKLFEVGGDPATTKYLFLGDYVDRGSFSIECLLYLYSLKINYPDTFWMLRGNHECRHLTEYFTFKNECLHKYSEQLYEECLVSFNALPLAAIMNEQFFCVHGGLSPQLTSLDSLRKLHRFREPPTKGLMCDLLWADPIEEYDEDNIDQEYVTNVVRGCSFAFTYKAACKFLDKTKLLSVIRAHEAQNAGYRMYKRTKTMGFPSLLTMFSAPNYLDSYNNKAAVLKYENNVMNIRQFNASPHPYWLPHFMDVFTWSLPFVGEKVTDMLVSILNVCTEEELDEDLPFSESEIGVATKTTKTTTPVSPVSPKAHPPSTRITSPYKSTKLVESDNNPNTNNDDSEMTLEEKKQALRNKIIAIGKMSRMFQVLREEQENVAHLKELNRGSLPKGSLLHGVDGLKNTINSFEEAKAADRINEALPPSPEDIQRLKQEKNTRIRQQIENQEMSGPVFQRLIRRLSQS

[5] = molecular target: Heat shock protein HSP 90-alpha (Homo sapiens, UniProt P07900); assay type: functional, organism-based
[6] = Luminescence Cell-Based Dose Retest to Confirm Inhibitors of Cancer Stem Cells. [Related pubchem assays (depositor defined):AID2717, AID2721]; assay type: functional; conditions: Homo sapiens
[7] = molecular target: G-protein coupled receptor 55 (Homo sapiens, UniProt Q9Y2T6); experiment: GPR55 antagonists blocking LPI-driven arrestin recruitment, primary screen, imaging, U2OS, beta-arrestin-GFP, LPI agonist (AID 2013); assay type: functional;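 note: antagonist potency measured as reduced agonist-driven arrestin aggregation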
G-protein coupled receptor 55, sequence (Q9Y2T6 whole entry): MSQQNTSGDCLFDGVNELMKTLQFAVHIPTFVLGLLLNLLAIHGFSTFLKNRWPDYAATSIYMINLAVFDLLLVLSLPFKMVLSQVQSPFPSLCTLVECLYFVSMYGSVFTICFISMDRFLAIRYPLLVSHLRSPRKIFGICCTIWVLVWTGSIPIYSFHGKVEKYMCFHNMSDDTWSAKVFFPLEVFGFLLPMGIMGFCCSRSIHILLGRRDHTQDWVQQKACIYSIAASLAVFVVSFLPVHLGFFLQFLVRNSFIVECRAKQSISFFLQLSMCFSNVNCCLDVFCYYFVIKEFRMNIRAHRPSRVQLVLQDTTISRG

[8] = system: Streptococcus sp. 'group A'; experiment: growth inhibition of control SK(-) GAS strain, dose response, counter-screen for streptokinase expression inhibitor project, luminescence, kanamycin, BacTiterGlo, confirmation (AID 1900); assay type: functional, organism-based
[9] = NIH-3T3 fibroblast cytotoxicity, dose response, cytotoxicity control, cell-based, fluorescence, Alamar Blue, secondary assay (AID 2327); assay type: functional;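 note: NIH-3T3 mouse fibroblasts cultured with fluconazole at 8 µg/mL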
[10] = C. albicans growth with fluconazole, confirmation, fluorescence, retest (AID 2467); assay type: functional, cell-based
[11] = cytotoxicity toward NIH3T3 fibroblasts, dose response, counter-screen, cell-based, ATP luminescence, mouse fibroblasts (AID 2010); assay type: functional;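 note: cells exposed to compound for about 90 hours before reading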
Streptococcus = experiment: Group A Streptococcus viability loss, dose response, counter-screen for streptokinase expression inhibitor project, luminescence, BacTiterGlo (AID 1915); assay type: functional, organism-based;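 note: potency for reduction of bacterial viability or growth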
[12] = inhibitors of intracellular T. cruzi replication, confirmation, NIH3T3 host cells, beta-gal luminescence (AID 2044); assay type: functional, cell-based;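 note: intracellular parasites grown in NIH/3T3 mouse fibroblasts as host cells; luminescent beta-galactosidase reporter signal from transgenic T. cruzi replicating inside host cells; inhibitors lower the luminescence signal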
Protein RecA = molecular target: T4, Protein RecA (Mycobacterium tuberculosis, UniProt P9WHJ3); experiment: Fluorescence Cell-Free Homogeneous Dose Retest to Identify Inhibitors of RecA-Intein Splicing Activity. [Related pubchem assays (depositor defined):AID2097, AID2223, AID489010, AID492950]; assay type: functional
T4 sequence (P9WHJ3 whole entry): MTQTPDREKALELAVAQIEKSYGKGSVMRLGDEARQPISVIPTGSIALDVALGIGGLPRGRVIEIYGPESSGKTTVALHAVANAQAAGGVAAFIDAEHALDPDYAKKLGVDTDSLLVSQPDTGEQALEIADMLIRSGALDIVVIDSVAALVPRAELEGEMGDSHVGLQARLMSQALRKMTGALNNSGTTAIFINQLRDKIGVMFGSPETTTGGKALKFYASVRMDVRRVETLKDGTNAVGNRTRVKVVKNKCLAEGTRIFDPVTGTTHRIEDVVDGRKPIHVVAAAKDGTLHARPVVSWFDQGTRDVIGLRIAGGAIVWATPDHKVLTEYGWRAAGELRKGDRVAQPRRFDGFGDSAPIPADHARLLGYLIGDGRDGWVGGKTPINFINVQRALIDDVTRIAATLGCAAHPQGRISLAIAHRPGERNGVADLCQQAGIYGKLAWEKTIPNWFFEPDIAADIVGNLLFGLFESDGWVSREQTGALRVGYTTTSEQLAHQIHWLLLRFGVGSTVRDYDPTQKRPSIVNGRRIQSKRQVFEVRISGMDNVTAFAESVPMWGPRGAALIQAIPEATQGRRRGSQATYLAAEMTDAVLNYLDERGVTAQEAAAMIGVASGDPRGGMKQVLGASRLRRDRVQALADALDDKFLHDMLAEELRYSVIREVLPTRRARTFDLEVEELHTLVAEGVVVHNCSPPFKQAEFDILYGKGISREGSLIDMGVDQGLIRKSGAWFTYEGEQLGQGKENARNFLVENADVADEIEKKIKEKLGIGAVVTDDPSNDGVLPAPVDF

[13] = molecular target: T5, Replicative DNA helicase DnaB (Mycobacterium tuberculosis, UniProt P9WMR3); experiment: DnaB intein splicing inhibitors, dose response, biochemical, cell-free fluorescence (AID 449749); assay type: functional
T5 sequence (P9WMR3 whole entry): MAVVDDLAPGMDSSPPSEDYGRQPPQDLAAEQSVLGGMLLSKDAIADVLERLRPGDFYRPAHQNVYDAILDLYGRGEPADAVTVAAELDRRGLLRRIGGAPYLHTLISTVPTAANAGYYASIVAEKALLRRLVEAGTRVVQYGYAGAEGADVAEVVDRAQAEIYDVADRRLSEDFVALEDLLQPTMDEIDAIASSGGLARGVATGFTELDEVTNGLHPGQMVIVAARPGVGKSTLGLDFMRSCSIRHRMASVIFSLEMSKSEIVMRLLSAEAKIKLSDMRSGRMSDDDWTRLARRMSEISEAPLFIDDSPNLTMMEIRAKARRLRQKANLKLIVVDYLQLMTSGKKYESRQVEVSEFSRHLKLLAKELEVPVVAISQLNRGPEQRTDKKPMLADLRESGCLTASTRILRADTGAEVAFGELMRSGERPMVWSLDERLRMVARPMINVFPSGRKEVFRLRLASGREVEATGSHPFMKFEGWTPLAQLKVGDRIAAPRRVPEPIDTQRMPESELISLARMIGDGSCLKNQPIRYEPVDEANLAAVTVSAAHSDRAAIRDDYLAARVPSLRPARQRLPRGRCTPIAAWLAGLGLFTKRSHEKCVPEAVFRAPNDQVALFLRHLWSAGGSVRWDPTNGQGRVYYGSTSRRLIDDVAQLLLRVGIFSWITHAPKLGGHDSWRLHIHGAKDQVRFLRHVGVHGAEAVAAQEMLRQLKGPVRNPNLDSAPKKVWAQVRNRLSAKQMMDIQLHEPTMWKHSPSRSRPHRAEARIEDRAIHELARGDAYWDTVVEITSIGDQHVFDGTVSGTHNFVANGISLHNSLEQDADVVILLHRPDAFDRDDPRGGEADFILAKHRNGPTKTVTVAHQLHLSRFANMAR

Cytochrome P450 2C9, sequence (P11712 whole entry): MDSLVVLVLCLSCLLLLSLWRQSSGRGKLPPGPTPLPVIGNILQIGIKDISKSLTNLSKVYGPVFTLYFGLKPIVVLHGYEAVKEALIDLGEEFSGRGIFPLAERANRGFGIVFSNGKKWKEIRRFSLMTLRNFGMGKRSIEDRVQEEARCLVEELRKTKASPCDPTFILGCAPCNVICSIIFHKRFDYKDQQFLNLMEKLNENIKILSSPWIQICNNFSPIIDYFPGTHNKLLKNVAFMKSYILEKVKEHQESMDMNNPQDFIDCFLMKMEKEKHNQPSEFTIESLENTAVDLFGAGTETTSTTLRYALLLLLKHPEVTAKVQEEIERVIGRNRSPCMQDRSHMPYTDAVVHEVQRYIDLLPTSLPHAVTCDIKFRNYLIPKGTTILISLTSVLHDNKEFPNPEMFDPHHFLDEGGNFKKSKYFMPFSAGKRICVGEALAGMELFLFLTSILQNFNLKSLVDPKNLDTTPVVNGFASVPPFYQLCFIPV

Cn1c(=O)oc2cc(S(=O)(=O)NCCC(=O)N3CC=C(c4ccccc4)CC3)ccc21
AC50 (Cytochrome P450 2C9): inconclusive
AC50 (Cytochrome P450 1A2): 31.6 µM (inconclusive)

COc1ccc(OC)c(NC(=O)CSCc2cnn(-c3ccccc3)c2-n2cccc2)c1
AC50 (Cytochrome P450 2C9): inconclusive
AC50 (Cytochrome P450 1A2): 25.1 µM (inconclusive)
EC50 [1]: 4.18 µM (active)

CNC(=O)c1ccc(-c2cc3onc(-c4ccccc4)c3c(=O)n2C)cc1
AC50 (HeLa): 44.9 µM (active)

O=C(NCCCN1CCOCC1)c1ccc2c(=O)n(-c3ccc(F)c(Cl)c3)c(=S)[nH]c2c1
IC50 [2]: 11.5 µM (active)

CC1=NC(C)(C)Cc2cc(C)c(C)cc21
IC50 [2]: 13.2 µM (active)

CCOCCCN1C(=O)CN(C2CCCCCC2)C(=O)C1c1ccc(OC)cc1 (stereo unspecified)
AC50 (Cytochrome P450 2C19): 25.1 µM (inconclusive)
AC50 (Cytochrome P450 2C9): inconclusive

CN(C)c1ncc2nc(-c3cc(F)cc(F)c3)c(=O)n(Cc3ccc(F)cc3)c2n1
AC50 (Cytochrome P450 2C9): inconclusive
AC50 (Cytochrome P450 3A4): 31.6 µM (inconclusive)

Cc1ccc(-n2cc(CN3CCN(Cc4nccn4C)CC3)c(-c3ccc(F)cc3)n2)cc1
IC50 [2]: 10.1 µM (active)

CCCC(=O)Nc1cccc(NC(=O)c2ccc([N+](=O)[O-])cc2Cl)c1
IC50 [2]: 15.1 µM (active)

O=c1[nH]c(-c2ccccn2)nc(C(F)(F)F)c1Br
EC50 [3]: 10.7 µM (active)
EC50 [4]: > 180 µM (inactive)
AC50 [5]: 4.03 µM (active)

N#Cc1c(/N=C/N2CCCC2)oc(-c2ccccc2)c1-c1ccccc1
AC50 [6]: 1.67 µM (active)
IC50 [7]: 0.558 µM (active)

Cc1cc(O)c2cc(Cl)ccc2n1
AC50 (Cytochrome P450 2C9): inconclusive

COc1ccc2c(c1)CCc1c(C(=O)NCC(C)C)noc1-2
AC50 (HeLa): 55.1 µM (active)

CCOc1ccc(N=Nc2ccc(O)c3ncccc23)cc1
EC50 [3]: > 150 µM (inactive)
EC50 [4]: > 180 µM (inactive)
EC50 [8]: 0.19 µM (active)
EC50 [9]: > 150 µM (inconclusive)
EC50 [10]: 1.11 µM (active)
EC50 [11]: 8.06 µM (active)
EC50 (Streptococcus): 1.45 µM (active)
EC50 [12]: 0.65 µM (active)

CC(C)(C)n1nnnc1C(c1cccs1)N(Cc1cccnc1)Cc1ccccc1Cl (stereo unspecified)
EC50 [11]: 15.1 µM (active)
EC50 (Protein RecA): 59 µM (active)
EC50 [12]: 0.684 µM (active)
AC50 [13]: > 120 µM (inactive)
IC50 [7]: 3.57 µM (active)

Cc1ccc(Nc2cc(C)nc(-c3ccccc3)n2)cc1
AC50 (HeLa): 36.7 µM (active)

O=C(NC1CC1)c1sc2cc(Cl)ccc2c1Cl
AC50 (HeLa): 69.3 µM (active)
